In PubChem BioAssay AID248 (DTP/NCI, 2004):
Values joined by “and” are separate entries in the source; they are usually repeats but may differ in a detail not shown here. Identical values can stand only once. Inconclusive results and toxic doses are left out.

System: L1210 leukemia ip in BDF1 mice, survival T/C
Assay: NCI In Vivo Anticancer Drug Screen. Data for tumor model L1210 Leukemia (intraperitoneal) in B6D2F1 (BDF1) mice
Conditions: endpoint: mean survival time, higher = longer survival
Method in brief: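 Transplantable tumor model; survival measured in treated vs vehicle control mice. Value = treated/control.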

With `NC(Cc1c[nH]c2ccc(N(CCCl)CCCl)cc12)C(=O)O` (stereo not given) the T/C (dose: 0.01 mg/kg/injection, schedule: Q#A X Z (ip), vehicle: acid diluted with saline) was 124 % of control, the T/C (dose: 0.02 mg/kg/injection, schedule: Q01DX010 (iv), vehicle: acid diluted with saline) was 103 % of control and the T/C (dose: 0.02 mg/kg/injection, schedule: Q01DX Z (ip), vehicle: acid diluted with saline) was 108 % of control. For the same compound, the T/C (dose: 0.02 mg/kg/injection, schedule: Q01DX Z (ip), vehicle: saline) was 119 % of control, the T/C (dose: 0.02 mg/kg/injection, schedule: Q01DX Z (sc), vehicle: acid diluted with saline) was 114 % of control and the T/C (dose: 0.05 mg/kg/injection, schedule: Q07DX Z (ip), vehicle: acid diluted with saline) was 111 % of control. For the same compound, the T/C (dose: 0.06 mg/kg/injection, schedule: Q01DX010 (iv), vehicle: acid diluted with saline) was 108 % of control, the T/C (dose: 0.06 mg/kg/injection, schedule: Q01DX Z (sc), vehicle: acid diluted with saline) was 106 % of control and the T/C (dose: 0.09 mg/kg/injection, schedule: Q#A X Z (ip), vehicle: acid diluted with saline) was 167 % of control. For the same compound, the T/C (dose: 0.1 mg/kg/injection, schedule: Q03DX Z (oral), vehicle: acid diluted with saline) was 110 % of control, the T/C (dose: 0.12 mg/kg/injection, schedule: Q01DX Z (oral), vehicle: acid diluted with saline) was 102 % of control and the T/C (dose: 0.12 mg/kg/injection, schedule: Q#A X Z (oral), vehicle: acid diluted with saline) was 121 % of control. For the same compound, the T/C (dose: 0.13 mg/kg/injection, schedule: Q01DX Z (ip), vehicle: saline) was 169 % of control, the T/C (dose: 0.13 mg/kg/injection, schedule: Q01DX Z (oral), vehicle: acid diluted with saline) was 101 % of control and the T/C (dose: 0.15 mg/kg/injection, schedule: Q01DX Z (oral), vehicle: saline) was 96 % of control. For the same compound, the T/C (dose: 0.16 mg/kg/injection, schedule: Q07DX Z (ip), vehicle: acid diluted with saline) was 103 % of control, the T/C (dose: 0.18 mg/kg/injection, schedule: Q01DX009 (ip), vehicle: saline) was 115 % of control and the T/C (dose: 0.18 mg/kg/injection, schedule: Q01DX Z (sc), vehicle: acid diluted with saline) was 120 % of control. The T/C (dose: 0.19 mg/kg/injection, schedule: Q03DX Z (oral), vehicle: acid diluted with saline) was 114 % of control, the T/C (dose: 0.26 mg/kg/injection, schedule: Q01DX Z (ip), vehicle: saline) was 153 % of control and 157 % of control and the T/C (dose: 0.27 mg/kg/injection, schedule: Q#A X Z (ip), vehicle: acid diluted with saline) was 97 % of control. The T/C (dose: 0.3 mg/kg/injection, schedule: Q01DX Z (oral), vehicle: saline) was 100 % of control, the T/C (dose: 0.38 mg/kg/injection, schedule: Q03DX Z (oral), vehicle: acid diluted with saline) was 112 % of control and the T/C (dose: 0.39 mg/kg/injection, schedule: Q01DX Z (ip), vehicle: saline) was 166 % of control. The T/C (dose: 0.5 mg/kg/injection, schedule: Q03DX Z (oral), vehicle: acid diluted with saline) was 120 % of control, the T/C (dose: 0.5 mg/kg/injection, schedule: Q#A X Z (oral), vehicle: acid diluted with saline) was 107 % of control and the T/C (dose: 0.54 mg/kg/injection, schedule: Q01DX Z (ip), vehicle: acid diluted with saline) was 198 % of control. The T/C (dose: 0.54 mg/kg/injection, schedule: Q01DX Z (sc), vehicle: acid diluted with saline) was 160 % of control, the T/C (dose: 0.58 mg/kg/injection, schedule: Q01DX Z (ip), vehicle: saline) was 190 % of control and the T/C (dose: 0.6 mg/kg/injection, schedule: Q01DX Z (oral), vehicle: saline) was 101 % of control. For the same compound, the T/C (dose: 0.75 mg/kg/injection, schedule: Q01DX009 (ip), vehicle: saline) was 176 % of control, the T/C (dose: 0.75 mg/kg/injection, schedule: Q03DX Z (oral), vehicle: acid diluted with saline) was 114 % of control and the T/C (dose: 0.87 mg/kg/injection, schedule: Q01DX Z (ip), vehicle: saline) was 211 % of control. The T/C (dose: 0.9 mg/kg/injection, schedule: Q07DX Z (oral), vehicle: acid diluted with saline) was 114 % of control, the T/C (dose: 1.0 mg/kg/injection, schedule: Q01DX (oral), vehicle: acid diluted with saline) was 189 % of control and the T/C (dose: 1.0 mg/kg/injection, schedule: Q03DX Z (oral), vehicle: acid diluted with saline) was 117 % of control. The T/C (dose: 1.2 mg/kg/injection, schedule: Q01DX Z (oral), vehicle: saline) was 115 % of control, the T/C (dose: 1.3 mg/kg/injection, schedule: Q07DX003 (ip), vehicle: acid diluted with saline) was 155 % of control and the T/C (dose: 1.5 mg/kg/injection, schedule: Q01DX009 (ip), vehicle: saline) was 160 % of control and 260 % of control. For the same compound, the T/C (dose: 1.5 mg/kg/injection, schedule: Q03DX (oral), vehicle: acid diluted with saline) was 117 % of control, the T/C (dose: 1.5 mg/kg/injection, schedule: Q03DX Z (oral), vehicle: acid diluted with saline) was 183 % of control and the T/C (dose: 1.6 mg/kg/injection, schedule: Q01DX Z (sc), vehicle: acid diluted with saline) was 103 % of control. For the same compound, the T/C (dose: 1.75 mg/kg/injection, schedule: Q01DX 1 (oral), vehicle: acid diluted with saline) was 102 % of control and 107 % of control, the T/C (dose: 1.75 mg/kg/injection, schedule: Q07DX (oral), vehicle: acid diluted with saline) was 112 % of control and the T/C (dose: 1.8 mg/kg/injection, schedule: Q07DX Z (oral), vehicle: acid diluted with saline) was 117 % of control. For the same compound, the T/C (dose: 1.87 mg/kg/injection, schedule: Q01DX001 (oral), vehicle: carboxymethylcellulose (CMC)) was 106 % of control, the T/C (dose: 2.0 mg/kg/injection, schedule: Q01DX (oral), vehicle: acid diluted with saline) was 102 % of control and the T/C (dose: 3.5 mg/kg/injection, schedule: Q01DX 1 (oral), vehicle: acid diluted with saline) was 110 % of control and 124 % of control. The T/C (dose: 3.5 mg/kg/injection, schedule: Q07DX (oral), vehicle: acid diluted with saline) was 114 % of control, the T/C (dose: 3.75 mg/kg/injection, schedule: Q01DX001 (ip), vehicle: carboxymethylcellulose (CMC)) was 192 % of control and the T/C (dose: 3.75 mg/kg/injection, schedule: Q01DX001 (oral), vehicle: carboxymethylcellulose (CMC)) was 108 % of control. For the same compound, the T/C (dose: 4.0 mg/kg/injection, schedule: Q01DX (oral), vehicle: acid diluted with saline) was 106 % of control, the T/C (dose: 5.0 mg/kg/injection, schedule: Q01DX001 (ip), vehicle: saline) was 295 % of control and the T/C (dose: 7.0 mg/kg/injection, schedule: Q01DX 1 (oral), vehicle: acid diluted with saline) was 110 % of control and 124 % of control. The T/C (dose: 7.0 mg/kg/injection, schedule: Q07DX (oral), vehicle: acid diluted with saline) was 123 % of control, the T/C (dose: 7.0 mg/kg/injection, schedule: Q07DX Z (oral), vehicle: acid diluted with saline) was 116 % of control and the T/C (dose: 7.5 mg/kg/injection, schedule: Q01DX001 (ip), vehicle: carboxymethylcellulose (CMC)) was 264 % of control. The T/C (dose: 7.5 mg/kg/injection, schedule: Q01DX001 (oral), vehicle: carboxymethylcellulose (CMC)) was 114 % of control, the T/C (dose: 8.0 mg/kg/injection, schedule: Q01DX (oral), vehicle: acid diluted with saline) was 95 % of control and the T/C (dose: 8.0 mg/kg/injection, schedule: Q03DX Z (oral), vehicle: acid diluted with saline) was 119 % of control. The T/C (dose: 10.0 mg/kg/injection, schedule: Q01DX001 (ip), vehicle: saline) was 270 % of control, the T/C (dose: 14.0 mg/kg/injection, schedule: Q01DX 1 (oral), vehicle: acid diluted with saline) was 105 % of control and 115 % of control and the T/C (dose: 14.0 mg/kg/injection, schedule: Q07DX Z (oral), vehicle: acid diluted with saline) was 107 % of control. The T/C (dose: 15.0 mg/kg/injection, schedule: Q01DX001 (oral), vehicle: carboxymethylcellulose (CMC)) was 119 % of control, the T/C (dose: 16.0 mg/kg/injection, schedule: Q01DX (oral), vehicle: acid diluted with saline) was 95 % of control and the T/C (dose: 16.0 mg/kg/injection, schedule: Q01DX Z (oral), vehicle: acid diluted with saline) was 116 % of control. For the same compound, the T/C (dose: 20.0 mg/kg/injection, schedule: Q01DX001 (oral), vehicle: saline) was 119 % of control, the T/C (dose: 28.0 mg/kg/injection, schedule: Q01DX 1 (oral), vehicle: acid diluted with saline) was 104 % of control and 118 % of control and the T/C (dose: 28.0 mg/kg/injection, schedule: Q01DX001 (oral), vehicle: acid diluted with saline) was 108 % of control and 118 % of control. The T/C (dose: 28.0 mg/kg/injection, schedule: Q07DX (oral), vehicle: acid diluted with saline) was 120 % of control, the T/C (dose: 40.0 mg/kg/injection, schedule: Q01DX001 (oral), vehicle: saline) was 86 % of control and the T/C (dose: 56.0 mg/kg/injection, schedule: Q01DX 1 (oral), vehicle: acid diluted with saline) was 113 % of control and 121 % of control. For the same compound, the T/C (dose: 56.0 mg/kg/injection, schedule: Q01DX001 (oral), vehicle: acid diluted with saline) was 117 % of control and 122 % of control, the T/C (dose: 56.0 mg/kg/injection, schedule: Q07DX (oral), vehicle: acid diluted with saline) was 123 % of control and the T/C (dose: 80.0 mg/kg/injection, schedule: Q01DX001 (oral), vehicle: saline) was 102 % of control. For the same compound, the T/C (dose: 112.0 mg/kg/injection, schedule: Q01DX001 (oral), vehicle: acid diluted with saline) was 120 % of control, the T/C (dose: 168.0 mg/kg/injection, schedule: Q01DX001 (oral), vehicle: acid diluted with saline) was 122 % of control and the T/C (dose: 204.0 mg/kg/injection, schedule: Q01DX 1 (oral), vehicle: acid diluted with saline) was 106 % of control. For the same compound, the T/C (dose: 204.0 mg/kg/injection, schedule: Q01DX001 (oral), vehicle: acid diluted with saline) was 107 % of control, the T/C (dose: 1.0 micrograms/kg/injection, schedule: Q07DX 2 (ip), vehicle: acid diluted with saline) was 101 % of control and the T/C (dose: 5.0 micrograms/kg/injection, schedule: Q07DX 2 (ip), vehicle: acid diluted with saline) was 102 % of control. The T/C (dose: 16.0 micrograms/kg/injection, schedule: Q07DX 2 (ip), vehicle: acid diluted with saline) was 117 % of control, the T/C (dose: 22.0 micrograms/kg/injection, schedule: Q01DX Z (ip), vehicle: saline) was 104 % of control and the T/C (dose: 33.0 micrograms/kg/injection, schedule: Q01DX Z (ip), vehicle: saline) was 107 % of control. For the same compound, the T/C (dose: 45.0 micrograms/kg/injection, schedule: Q01DX009 (ip), vehicle: saline) was 109 % of control, the T/C (dose: 50.0 micrograms/kg/injection, schedule: Q01DX Z (ip), vehicle: saline) was 107 % of control and the T/C (dose: 50.0 micrograms/kg/injection, schedule: Q07DX 2 (ip), vehicle: acid diluted with saline) was 123 % of control. The T/C (dose: 75.0 micrograms/kg/injection, schedule: Q01DX Z (ip), vehicle: saline) was 115 % of control, the T/C (dose: 750.0 micrograms/kg/injection, schedule: Q01DX009 (ip), vehicle: saline) was 207 % of control and the T/C (dose: 1500.0 micrograms/kg/injection, schedule: Q01DX009 (ip), vehicle: saline) was 219 % of control.
